Experimental data from the NIST ThermoML archive (doi:10.1021/je060203o).
± gives the expanded uncertainty stated by the source.

Conditions: Liquid; for mass density: Vibrating tube method; for speed of sound: Pulse-echo method

CCCn1cc[n+](C)c1.O=S(=O)([N-]S(=O)(=O)C(F)(F)F)C(F)(F)F
Conditions	mass density [kg/m3]	speed of sound [m/s]
298.15 K, 100 kPa	1475.7 ± 2.5	–
298.15 K, 500 kPa	–	1236.4 ± 3.1
298.15 K, 1830 kPa	1476.98 ± 2.6	–
298.15 K, 3500 kPa	–	1246.5 ± 3.1
298.15 K, 7000 kPa	–	1258.2 ± 3.1
298.15 K, 10000 kPa	–	1268 ± 3.1
298.15 K, 10020 kPa	1483.13 ± 2.8	–
298.15 K, 13500 kPa	–	1279.2 ± 3.1
298.15 K, 14980 kPa	1486.69 ± 3	–
298.15 K, 17000 kPa	–	1290 ± 3.1
298.15 K, 19750 kPa	1490.06 ± 3.1	–
298.15 K, 20000 kPa	–	1299.2 ± 3.1
298.15 K, 25860 kPa	1494.22 ± 3.2	–
298.15 K, 30000 kPa	–	1329.2 ± 3.2
298.15 K, 31480 kPa	1497.95 ± 3.4	–
298.15 K, 37770 kPa	1502.01 ± 3.6	–
298.15 K, 40000 kPa	–	1357.5 ± 3.2
298.15 K, 44170 kPa	1506.01 ± 3.8	–
298.15 K, 50000 kPa	–	1384.5 ± 3.2
298.15 K, 50750 kPa	1509.97 ± 4	–
298.15 K, 59590 kPa	1515.1 ± 4.2	–
298.15 K, 60000 kPa	–	1410.3 ± 3.2
298.15 K, 70000 kPa	–	1435.1 ± 3.2
298.15 K, 80000 kPa	–	1459 ± 3.2
298.15 K, 90000 kPa	–	1482.1 ± 3.2
298.15 K, 100000 kPa	–	1504.5 ± 3.2
298.15 K, 112500 kPa	–	1531.7 ± 3.2
298.15 K, 125000 kPa	–	1557.6 ± 3.2
298.15 K, 137510 kPa	–	1582.8 ± 3.2
298.15 K, 150000 kPa	–	1606 ± 3.2
298.15 K, 162500 kPa	–	1629.6 ± 3.2
298.15 K, 175000 kPa	–	1652.5 ± 3.2
298.15 K, 187500 kPa	–	1674.5 ± 3.2
298.15 K, 200000 kPa	–	1695.9 ± 3.2
299.15 K, 100 kPa	1474.62 ± 2.5	–
299.15 K, 1830 kPa	1475.87 ± 2.6	–
299.15 K, 10020 kPa	1482.12 ± 2.8	–
299.15 K, 14980 kPa	1485.68 ± 3	–
299.15 K, 19750 kPa	1489.01 ± 3.1	–
299.15 K, 25860 kPa	1493.18 ± 3.2	–
299.15 K, 31480 kPa	1496.89 ± 3.4	–
299.15 K, 37770 kPa	1500.95 ± 3.6	–
299.15 K, 44170 kPa	1504.95 ± 3.8	–
299.15 K, 50750 kPa	1509.07 ± 4	–
299.15 K, 59590 kPa	1514.22 ± 4.2	–
300.15 K, 100 kPa	1473.66 ± 2.5	–
300.15 K, 1830 kPa	1474.94 ± 2.6	–
300.15 K, 10020 kPa	1481.1 ± 2.8	–
300.15 K, 14980 kPa	1484.68 ± 2.9	–
300.15 K, 19750 kPa	1488.07 ± 3.1	–
300.15 K, 25860 kPa	1492.27 ± 3.2	–
300.15 K, 31480 kPa	1496.03 ± 3.4	–
300.15 K, 37770 kPa	1500.11 ± 3.6	–
300.15 K, 44170 kPa	1504.13 ± 3.8	–
300.15 K, 50750 kPa	1508.14 ± 4	–
300.15 K, 59590 kPa	1513.35 ± 4.2	–
301.15 K, 100 kPa	1472.79 ± 2.5	–
301.15 K, 1830 kPa	1474.07 ± 2.6	–
301.15 K, 10020 kPa	1480.19 ± 2.8	–
301.15 K, 14980 kPa	1483.74 ± 2.9	–
301.15 K, 19750 kPa	1487.1 ± 3.1	–
301.15 K, 25860 kPa	1491.35 ± 3.2	–
301.15 K, 31480 kPa	1495.08 ± 3.4	–
301.15 K, 37770 kPa	1499.16 ± 3.6	–
301.15 K, 44170 kPa	1503.18 ± 3.8	–
301.15 K, 50750 kPa	1507.27 ± 4	–
301.15 K, 59590 kPa	1512.51 ± 4.2	–
302.15 K, 100 kPa	1471.92 ± 2.5	–
302.15 K, 1830 kPa	1473.15 ± 2.6	–
302.15 K, 10020 kPa	1479.27 ± 2.8	–
302.15 K, 14980 kPa	1482.84 ± 2.9	–
302.15 K, 19750 kPa	1486.21 ± 3.1	–
302.15 K, 25860 kPa	1490.42 ± 3.2	–
302.15 K, 31480 kPa	1494.19 ± 3.4	–
302.15 K, 37770 kPa	1498.29 ± 3.6	–
302.15 K, 44170 kPa	1502.37 ± 3.8	–
302.15 K, 50750 kPa	1506.46 ± 3.9	–
302.15 K, 59590 kPa	1511.74 ± 4.2	–
303.15 K, 100 kPa	1471.14 ± 2.5	–
303.15 K, 1830 kPa	1472.39 ± 2.6	–
303.15 K, 10020 kPa	1478.49 ± 2.8	–
303.15 K, 14980 kPa	1482 ± 2.9	–
303.15 K, 19750 kPa	1485.41 ± 3.1	–
303.15 K, 25860 kPa	1489.57 ± 3.2	–
303.15 K, 31480 kPa	1493.32 ± 3.4	–
303.15 K, 37770 kPa	1497.43 ± 3.6	–
303.15 K, 44170 kPa	1501.5 ± 3.8	–
303.15 K, 50750 kPa	1505.6 ± 3.9	–
303.15 K, 59590 kPa	1510.93 ± 4.2	–
308.15 K, 100 kPa	1466.83 ± 2.5	–
308.15 K, 500 kPa	–	1214 ± 3.1
308.15 K, 1830 kPa	1468.1 ± 2.6	–
308.15 K, 3500 kPa	–	1224.4 ± 3.1
308.15 K, 7000 kPa	–	1236.2 ± 3.1
308.15 K, 10000 kPa	–	1246.2 ± 3.1
308.15 K, 10020 kPa	1474.12 ± 2.8	–
308.15 K, 13500 kPa	–	1257.6 ± 3.1
308.15 K, 14980 kPa	1477.65 ± 2.9	–
308.15 K, 17000 kPa	–	1268.6 ± 3.1
308.15 K, 19750 kPa	1480.89 ± 3	–
308.15 K, 20000 kPa	–	1278 ± 3.1
308.15 K, 25860 kPa	1485.18 ± 3.2	–
308.15 K, 30000 kPa	–	1308.6 ± 3.2
308.15 K, 31480 kPa	1489 ± 3.4	–
308.15 K, 37770 kPa	1493.05 ± 3.5	–
308.15 K, 40000 kPa	–	1337.1 ± 3.2
308.15 K, 44170 kPa	1497.15 ± 3.7	–
308.15 K, 50000 kPa	–	1364.7 ± 3.2
308.15 K, 50750 kPa	1501.36 ± 3.9	–
308.15 K, 59590 kPa	1506.81 ± 4.2	–
308.15 K, 60000 kPa	–	1391 ± 3.2
308.15 K, 70000 kPa	–	1416.2 ± 3.2
308.15 K, 80000 kPa	–	1440.3 ± 3.2
308.15 K, 90000 kPa	–	1463.7 ± 3.2
308.15 K, 100000 kPa	–	1486.4 ± 3.2
308.15 K, 112500 kPa	–	1513.6 ± 3.2
308.15 K, 125000 kPa	–	1539.9 ± 3.2
308.15 K, 137510 kPa	–	1565.2 ± 3.2
308.15 K, 150000 kPa	–	1589.6 ± 3.2
308.15 K, 162500 kPa	–	1613.3 ± 3.2
308.15 K, 175000 kPa	–	1636.3 ± 3.2
308.15 K, 187500 kPa	–	1658.6 ± 3.2
308.15 K, 200000 kPa	–	1680.4 ± 3.2
313.15 K, 100 kPa	1462.07 ± 2.5	–
313.15 K, 1830 kPa	1463.28 ± 2.5	–
313.15 K, 10020 kPa	1469.31 ± 2.8	–
313.15 K, 14980 kPa	1472.86 ± 2.9	–
313.15 K, 19750 kPa	1476.15 ± 3	–
313.15 K, 25860 kPa	1480.43 ± 3.2	–
313.15 K, 31480 kPa	1484.36 ± 3.3	–
313.15 K, 37770 kPa	1488.4 ± 3.5	–
313.15 K, 44170 kPa	1492.56 ± 3.7	–
313.15 K, 50750 kPa	1496.83 ± 3.9	–
313.15 K, 59590 kPa	1502.49 ± 4.1	–
318.15 K, 100 kPa	1457.05 ± 2.5	–
318.15 K, 500 kPa	–	1192.3 ± 3.1
318.15 K, 1830 kPa	1458.31 ± 2.5	–
318.15 K, 3500 kPa	–	1202.9 ± 3.1
318.15 K, 7000 kPa	–	1215 ± 3.1
